Source: ChEMBL document CHEMBL6127071, “Albusamides A-G: Hydroxylated Fatty Amine Derivatives from the Deep-Sea-Derived Actinomycete Streptomyces albus 228DD-066 and Their Cytotoxic Activity” (2024)
Where a name gives a salt, the structure may show the parent alone.

Key:
Assay type in all cases: functional
[1] = Growth inhibition of human MRC9 cells assessed as reduction in cell viability measured after 48 hrs by SRB method
ACHN = test: Growth inhibition of human ACHN cells assessed as reduction in cell viability measured after 48 hrs by SRB method
MDA-MB-231 = test: Growth inhibition of human MDA-MB-231 cells assessed as reduction in cell viability measured after 48 hrs by SRB method
HCT-15 = test: Growth inhibition of human HCT-15 cells assessed as reduction in cell viability measured after 48 hrs by SRB method
PC-3 = test: Growth inhibition of human PC-3 cells assessed as reduction in cell viability measured after 48 hrs by SRB method
NUGC-3 = test: Growth inhibition of human NUGC-3 cells assessed as reduction in cell viability measured after 48 hrs by SRB method
NCI-H23 = test: Growth inhibition of human NCI-H23 cells assessed as reduction in cell viability measured after 48 hrs by SRB method
[2] = Growth inhibition of human RPMI-1788 cells assessed as reduction in cell viability measured after 48 hrs by SRB method
HL-60 = test: Growth inhibition of human HL-60 cells assessed as reduction in cell viability measured after 48 hrs by SRB method
Raji = test: Growth inhibition of human Raji cells assessed as reduction in cell viability measured after 48 hrs by SRB method
WSUDLCL2 = test: Growth inhibition of human WSUDLCL2 cells assessed as reduction in cell viability measured after 48 hrs by SRB method
NALM-6 = test: Growth inhibition of human NALM-6 cells assessed as reduction in cell viability measured after 48 hrs by SRB method
K562 = test: Growth inhibition of human K562 cells assessed as reduction in cell viability measured after 48 hrs by SRB method
RPMI 8402 = test: Growth inhibition of human RPMI 8402 cells assessed as reduction in cell viability measured after 48 hrs by SRB method
U-266 = test: Growth inhibition of human U-266 cells assessed as reduction in cell viability measured after 48 hrs by SRB method

Row | Structure (SMILES) | GI50 [1] [µM] | GI50 (ACHN) [µM] | GI50 (MDA-MB-231) [µM] | GI50 (HCT-15) [µM] | GI50 (PC-3) [µM] | GI50 (NUGC-3) [µM] | GI50 (NCI-H23) [µM] | GI50 [2] [µM] | GI50 (HL-60) [µM] | GI50 (Raji) [µM] | GI50 (WSUDLCL2) [µM] | GI50 (NALM-6) [µM] | GI50 (K562) [µM] | GI50 (RPMI 8402) [µM] | GI50 (U-266) [µM]
1 | CC(=O)NCCCCCCCCC[C@@H](O)CCO | 4 | 5.8 | 4.6 | 5.4 | 5.5 | 3 | 4.6 | 2.9 | > 30 | > 30 | 5.6 | > 30 | 28 | 25 | > 30
2 | CC[C@@H](O)CCCCCCCCCNC(C)=O | 5.3 | 5.7 | 4.7 | 4.6 | 5.1 | 3.9 | 5.3 | 4.7 | > 30 | > 30 | 14 | > 30 | > 30 | > 30 | > 30
3 | CC(=O)NCCCCCCCCC[C@@H](O)[C@@H](C)O | 2 | 1.6 | 2 | 2.1 | 1.7 | 1.4 | 1.9 | 3.1 | > 30 | > 30 | 8.3 | > 30 | > 30 | > 30 | > 30
4 | CC(=O)CCCCCCCCCCNC(C)=O | > 30 | > 30 | > 30 | > 30 | > 30 | > 30 | > 30 | > 30 | > 30 | > 30 | > 30 | > 30 | > 30 | > 30 | > 30
5 | CC(=O)CCCCCCCCNC(C)=O | 1.1 | 1.1 | 1.1 | 1.1 | 0.8 | 0.7 | 1 | 0.4 | 7.9 | 0.4 | 0.8 | 9.2 | 11 | 2.5 | > 30
6 | CC(=O)NCCCCCCCCCC[C@H](O)CO | 0.6 | 0.5 | 0.5 | 0.5 | 0.5 | 0.4 | 0.5 | 0.1 | 1.3 | 26 | 0.2 | 1.5 | 1.5 | 0.6 | > 30
7 | CC(=O)NCCCCCCCCC[C@@H](O)[C@H](C)O | 6.7 | 6.4 | 7.5 | 5.8 | 7.3 | 6.6 | 7.2 | 17 | > 30 | > 30 | > 30 | > 30 | > 30 | > 30 | > 30
8 | CC(=O)NCCCCCCCCCC[C@@H](C)O | 19 | 23 | 20 | 16 | 19 | 19 | 22 | > 30 | > 30 | > 30 | > 30 | > 30 | > 30 | > 30 | > 30
9 | COc1cccc2c1C(=O)c1c(O)c3c(c(O)c1C2=O)C[C@@](O)(C(=O)CO)C[C@@H]3O[C@H]1C[C@H](N)[C@H](O)[C@H](C)O1 [DOXORUBICIN HYDROCHLORIDE] | 0.08 | 0.081 | 0.077 | 0.087 | 0.085 | 0.093 | 0.072 | 0.007 | 0.002 | 0.008 | 0.004 | 0.003 | 0.007 | 0.01 | 0.004
10 | CCC(=O)CCCCCCCCCNC(C)=O | > 30 | > 30 | > 30 | > 30 | > 30 | > 30 | > 30 | > 30 | > 30 | 19 | > 30 | > 30 | > 30 | > 30 | > 30
11 | CC(=O)NCCCCCCCCCO | 2.8 | 2.3 | 2.6 | 2.6 | 2 | 1.5 | 2.1 | 0.5 | 15 | > 30 | 1.3 | 18 | 19 | 4.4 | > 30
12 | CC(=O)NCCCCCCCCCC(=O)CCO | 20 | 16 | 18 | 15 | 19 | 17 | 18 | 28 | > 30 | > 30 | > 30 | > 30 | > 30 | > 30 | > 30
